Consider one molecule from article PMC10716780, “The multistep oxidation of cholesterol to pregnenolone by human cytochrome P450 11A1 is highly processive” (The Journal of Biological Chemistry, 2023).

The structures appear in SMILES notation.

The target in series [1] is T1, human P450 11A1 (Homo sapiens, UniProt P05108).
T1 sequence (P05108 41-521 limits assumed): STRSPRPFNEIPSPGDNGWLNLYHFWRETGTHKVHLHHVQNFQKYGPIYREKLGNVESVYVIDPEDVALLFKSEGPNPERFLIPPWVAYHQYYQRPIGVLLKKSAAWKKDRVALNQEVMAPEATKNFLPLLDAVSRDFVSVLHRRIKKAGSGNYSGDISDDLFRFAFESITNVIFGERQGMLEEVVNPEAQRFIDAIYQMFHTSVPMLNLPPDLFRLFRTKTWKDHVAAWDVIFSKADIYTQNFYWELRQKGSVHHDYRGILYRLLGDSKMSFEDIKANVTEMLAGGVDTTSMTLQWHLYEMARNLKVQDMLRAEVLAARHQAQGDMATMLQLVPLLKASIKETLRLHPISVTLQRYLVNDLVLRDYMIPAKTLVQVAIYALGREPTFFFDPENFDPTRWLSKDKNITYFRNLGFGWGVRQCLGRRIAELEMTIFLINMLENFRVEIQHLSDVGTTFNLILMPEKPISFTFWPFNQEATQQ
T1 sequence (P00257 59-186 partner): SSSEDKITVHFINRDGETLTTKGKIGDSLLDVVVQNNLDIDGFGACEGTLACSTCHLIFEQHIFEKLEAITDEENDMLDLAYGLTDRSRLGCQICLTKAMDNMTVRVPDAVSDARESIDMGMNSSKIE
The experiment in a line: Kinetic isotope effect assay, disappearance of d0- and d3-cholesterol under single-turnover conditions. The format is biochemical. Further details: M A S T R S P R P F N E I P S P G D N; Met-Ala (N-terminal start residues in place of the transit peptide and Ile40) (N); made in house; host or cells: E. coli (P450 11A1 in C41(DE3); Adx and AdR in E. coli). The conditions noted are these: 5 μM P450, 5 μM sterol, exponential decay fit. The procedure:
P450 11A1 incubations were performed under (low Adx) single-turnover conditions (5 μM P450, 5 μM cholesterol; see Experimental procedures) with d0- (authentic, unlabeled) and d3-cholesterol, and the disappearance of each was monitored by LC-atmospheric pressure chemical ionization-MS (m/z 369.3516 and 372.3705, respectively). In theory, if C-H bond breaking were rate-limiting in the initial hydroxylation then the rate of d3-cholesterol consumption would be slower relative to the d0 compound due to the increased strength of a C-D bond.
The kinetic isotope experiment was designed similarly to the benchtop experiment described above, but with some modifications. P450 11A1 (5 μM) was reconstituted with the redox partners AdR (10 μM) and Adx (5 μM) on ice (10 min) prior to dilution in potassium Hepes (50 mM, pH 7.4) and H2O and addition of d3-cholesterol substrate (5 μM). The mixture was preincubated (5 min) prior to initiation with NADPH (2.5 mM, from 25 mM in potassium Hepes (50 mM, pH 7.4)) thus bringing all components to their desired final concentrations. After completing the desired incubation time, an aliquot (500 μl) was removed from the incubation and added to vials containing CH2Cl2 (5 ml) and the vials were mixed with a vortex device and placed on ice. The quenched reactions were centrifuged (10^3g, 5 min, 23 °C) to separate layers, and the organic (bottom) layers were removed (4 ml) and transferred to fresh glass vials. The extraction process was repeated and the two extracts (2 × 4 ml) from each sample were combined to maximize product recovery. Samples (8 ml) were brought to dryness under a stream of nitrogen, and the dried residues were dissolved in CH3OH (25 μl) and transferred to autosampler vials for analysis.
Samples (held at 4 °C) were injected (10 μl) using a Waters Acquity UPLC system on a Acquity BEH octadecylsilane (C18) 2.1 mm × 50 mm (1.7 μm) UPLC column (held at 25 °C) with a flow rate of 0.5 ml min^−1 using an isocratic mobile phase of CH3CN (only). The column eluate was subjected to atmospheric pressure chemical ionization and analyzed using a Thermo Fisher Scientific LTQ XL Orbitrap mass spectrometer instrument operating in positive mode, scanning from m/z 100 to 500, with a resolution setting of 120,000. Data were processed using Xcalibur QualBrowser (Thermo Fisher Scientific) software (version 2.0.7; https://www.thermofishcer.com/order/catalog/product/OPTON).

Series [2] deals with human P450 11A1. Further details: method as in PMID 33271253. To be noted: surface plasmon resonance ref 46; cited from earlier work.

Regarding `CC(C)CCC[C@@H](C)[C@H]1CC[C@H]2[C@@H]3CC=C4C[C@@H](O)CC[C@]4(C)[C@H]3CC[C@]12C` [Cholesterol], the rate of disappearance in series [1] stood at 0.035 s⁻¹. Also, in series [2], the “decrease in Kd of P450 11A1-Adx complex in the presence of cholesterol” value is reported as about 3 fold.
